{"source": "patent US20240165002A1", "about": "“Compositions Incorporating Avobenzone Complexes” (University of Cincinnati, priority 2022, published 2024)", "origin": "cited, not measured here", "key": {"[1]": {"conditions": "at 360 nm"}}}
{"smiles": "COc1ccc(C(=O)CC(=O)c2ccc(C(C)(C)C)cc2)cc1", "note": "[Avobenzone, 1-(4-methoxyphenyl)-3-(4-tertbutylphenyl)-propane-1,3-dione]", "values": [{"measurement": "molar absorption coefficient", "setting": "[1]", "result": "33,756 L/(mol·cm)"}, {"measurement": "duration of photoprotection once exposed to sun", "setting": "once exposed to sun", "result": 30, "unit": "min"}, {"measurement": "photostability", "setting": "upon exposure to light, keto-enol tautomerization", "result": "poor photostability"}]}
